Laboratory results reported in US8338430B2, “N-substituted piperazines” (Dow AgroSciences, LLC., priority 2005, dated 2012).
Read-outs that look alike come from different tables or passages of the source.

How the values were obtained:
Format in all cases: in vivo
[1] = tested on: mosquito (Aedes aegypti) larvae; test: Mosquito larvae mortality (AEDSAE); settings: 72 h, read-out: AEDSAE: % mortality against mosquito larvae
Procedure: (§1) The compounds identified in TABLE 2 were prepared using the procedures illustrated in the previous examples and these compounds were tested against beet armyworm, mosquito, fruit fly, and cotton aphid using protocols described after.
(§2) Compounds were evaluated on mosquito (Aedes aegypti) larvae, beet armyworm (Spodoptera exigua) larvae, fruit fly (Drosophila melanogaster) adults and cotton aphid (Aphis gossypi). Newly hatched mosquito larvae (about 50 larvae/well) in 96-well microtiter plates in 230 ul of water containing powdered liver/yeast extract (1 gr/100 ml) were treated with 20 ppm solution of the test compound. Following treatment the plates were covered with a lid and mortality was determined three days after treatment. Beet armyworm eggs (about 5 per well) were placed on artificial diet (in a 96-well microtiter plate) treated with a 4000 ppm solution of a test compound in combination with piperonyl butoxide (in approximate ratio of 1:4). After infestation, the plates were covered with a lid and mortality was determined seven days following treatment. Five-day old fruit fly adults (about 5/well) were placed in deep-well microtiter plates containing 250 ul/well of a 2% agar-10% sucrose mixture that had been treated with a 4000 ppm solution of a test compound. Following infestation, the plates were covered with a lid and mortality was determined three days after treatment. Treatments for the mosquito and armyworm were replicated six times each, that of the fruit fly three times each.

[2] = tested on: beet armyworm (Spodoptera exigua) larvae; test: Beet armyworm mortality on artificial diet (LAPHEG); settings: 168 h, read-out: LAPHEG: % mortality against beet armyworm on artificial diet
Procedure: as §1, §2

[3] = tested on: fruit fly (Drosophila melanogaster) adults; test: Adult fruit fly mortality on artificial diet (DROSME); settings: 72 h, read-out: DROSME: % mortality against adult fruit fly on artificial diet
Procedure: as §1, §2

[4] = tested on: cotton aphid (Aphis gossypi); test: Cotton aphid foliar spray test on squash (CA 200); settings: 72 h, squash cotyledons, 3 days, Corrected % Control (Abbott), read-out: CA 200: % control against cotton aphid in foliar spray tests
Procedure: The compounds identified in TABLE 2 were prepared using the procedures illustrated in the previous examples and these compounds were tested against beet armyworm, mosquito, fruit fly, and cotton aphid using protocols described after. […]
Squash with fully expanded cotyledon leaves were trimmed to one cotyledon per plant and infested with cotton aphid (wingless adult and nymph) 1 day prior to chemical application.
Each plant is examined before chemical application to ensure proper infestation (ca. 30-70 aphids per plant). Compounds (3 mg) were dissolved in 3 mL of acetone:methanol (50:50) solvent, forming stock solutions of 1000 ppm. The stock solutions were then diluted with 0.025% Tween 20 (in H2O) to make […]. A hand-held Devilbiss sprayer was used to apply the spray solutions until runoff to both sides of the squash cotyledon leaves. Four plants (4 replications) were used for each concentration of each compound. Reference plants (solvent check) were sprayed with 0.025% Tween 20 only. Treated plants were held in a holding room for 3 days at approximately 23° C. and 40% RH before the number of live aphids on each plant was recorded. Insecticidal activity was measured by Corrected % Control using Abbott's correction formula and presented in TABLE 2: Corrected % Control=100*(X−Y)/X • where X=No. of live aphids on solvent check plants • Y=No. of live aphids on treated plants

[5] = 20 μg/ml, mortality three days after treatment
[6] = 4000 μg/ml, with piperonyl butoxide (approx. 1:4), mortality seven days after treatment
[7] = 4000 μg/ml, mortality three days after treatment

| SMILES | mortality at 20 µg/mL [1, 5] [%] | mortality at 4000 µg/mL [2, 6] [%] | mortality at 4000 µg/mL [3, 7] [%] | pest or weed control at 200 ppm [4] [%] | mortality at 20 µg/mL [1] [%] | mortality at 4000 µg/mL [2] [%] | mortality at 4000 µg/mL [3] [%] |
| --- | --- | --- | --- | --- | --- | --- | --- |
| CC(C)(C)OC(=O)N1CCN(CCc2ccccc2C(F)(F)F)CC1 [Compound 96] | 1 to 25 | 26 to 49 | 1 to 25 | 50 to 100 |  |  |  |
| Clc1cc2c(cc1CN1CCN(CCOc3ccccc3)CC1)OCO2 [Compound 103] | 1 to 25 | 1 to 25 | 1 to 25 | 50 to 100 |  |  |  |
| O=C(OCc1ccccc1)N1CCN(C(=O)c2cccs2)CC1 [Compound 146] | 1 to 25 | 1 to 25 | 1 to 25 |  |  |  |  |
| O=C(c1ccc(Cl)cc1)N1CCN(Cc2ccccc2)CC1 [Compound 44] | 1 to 25 | 1 to 25 | 1 to 25 | 1 to 25 |  |  |  |
| O=C(COc1ccccc1)N1CCN(C(=O)OCc2ccccc2)CC1 [Compound 139] | 1 to 25 | 26 to 49 | 1 to 25 |  |  |  |  |
| N#Cc1cccc(CN2CCN(CCc3ccccc3)CC2)c1 [Compound 17, 3-{[4-(2-phenylethyl)piperazin-1-yl]methyl}benzonitrile] | 1 to 25 | 1 to 25 | 26 to 49 | 1 to 25 |  |  |  |
| O=C(c1ccc2ccccc2n1)N1CCN(CCc2ccccc2C(F)(F)F)CC1 [Compound 156] | 1 to 25 | 1 to 25 | 1 to 25 | 50 to 100 |  |  |  |
| FC(F)(F)c1ccccc1CCN1CCN(Cc2ccccc2Cl)CC1 [Compound 101] | 1 to 25 | 1 to 25 | 1 to 25 | 50 to 100 |  |  |  |
| O=C(c1ccco1)N1CCN(Cc2ccccc2)CC1 [Compound 34] | 1 to 25 | 1 to 25 | 1 to 25 |  |  |  |  |
| FC(F)(F)c1ccc(CN2CCN(CCc3ccccc3C(F)(F)F)CC2)o1 [Compound 87] | 1 to 25 | 1 to 25 | 1 to 25 | 26 to 49 |  |  |  |
| COc1cc(CN2CCN(CCc3ccccc3C(F)(F)F)CC2)c([N+](=O)[O-])cc1OC [Compound 99] | 1 to 25 | 1 to 25 | 1 to 25 | 50 to 100 |  |  |  |
| Clc1cc2c(cc1CN1CCN(CCc3ccccc3)CC1)OCO2 [Compound 104] | 1 to 25 | 1 to 25 | 50 to 100 | 50 to 100 |  |  |  |
| Cc1nn(C)c2sc(C(=O)N3CCN(CCc4ccccc4C(F)(F)F)CC3)cc12 [Compound 160] | 1 to 25 | 1 to 25 | 1 to 25 | 1 to 25 |  |  |  |
| COC(=O)c1cccc(CN2CCN(CCc3ccccc3)CC2)c1 [Compound 90] | 1 to 25 | 1 to 25 | 26 to 49 | 50 to 100 |  |  |  |
| O=C(c1coc2ccccc12)N1CCN(Cc2ccccc2)CC1 [Compound 50] | 1 to 25 | 1 to 25 | 1 to 25 | 50 to 100 |  |  |  |
| FC(F)(F)c1ccccc1CCN1CCN(Cc2ccc3c(c2)OCO3)CC1 [Compound 107] | 1 to 25 | 1 to 25 | 50 to 100 | 50 to 100 |  |  |  |
| CC(CN1CCN(Cc2cc3c(cc2Cl)OCO3)CC1)c1ccccc1 (stereo not shown) [Compound 333] | 1 to 25 | 1 to 25 | 50 to 100 | 50 to 100 |  |  |  |
| O=C(OCc1ccccc1)N1CCN(Cc2ccc(Cl)nc2)CC1 [Compound 192] | 1 to 25 | 1 to 25 | 1 to 25 |  |  |  |  |
| COC(=O)c1cccc(CN2CCN(CCOc3ccccc3)CC2)c1 [Compound 303] | 1 to 25 | 1 to 25 | 26 to 49 |  |  |  |  |
| FC(F)(F)Oc1cccc(CN2CCN(CCc3ccccc3)CC2)c1 [Compound 91] | 1 to 25 | 1 to 25 | 26 to 49 | 1 to 25 |  |  |  |
| FC(F)(F)c1ccccc1CCN1CCN(Cc2cc3c(cc2Cl)OCO3)CC1 [Compound 86] | 26 to 49 | 1 to 25 | 1 to 25 | 50 to 100 |  |  |  |
| O=C(c1ccccc1)c1ccc(CN2CCN(C(=O)C3CC3)CC2)cc1 [Compound 321] | 1 to 25 | 1 to 25 | 1 to 25 |  |  |  |  |
| O=C(c1ccc(-c2ccccn2)s1)N1CCN(CCc2ccccc2C(F)(F)F)CC1 [Compound 126] | 1 to 25 | 1 to 25 | 1 to 25 | 50 to 100 |  |  |  |
| Clc1cc2c(cc1CN1CCN(CCC3CCCCC3)CC1)OCO2 [Compound 102] | 1 to 25 | 1 to 25 | 1 to 25 | 50 to 100 |  |  |  |
| COc1ccc(CN2CCN(CCc3ccccc3C(F)(F)F)CC2)c(Cl)c1OC [Compound 108] | 1 to 25 | 1 to 25 | 1 to 25 | 50 to 100 |  |  |  |
| O=C(Cc1ccc(Cl)cc1)N1CCN(Cc2ccccc2)CC1 [Compound 38] |  |  |  | 50 to 100 | 1 to 25 | 1 to 25 | 1 to 25 |
| CC(=O)c1ccccc1C(=O)N1CCN(CCc2ccccc2C(F)(F)F)CC1 [Compound 105] | 1 to 25 | 1 to 25 | 1 to 25 | 50 to 100 |  |  |  |
| COc1ccc(CN2CCN(CCc3ccccc3C(F)(F)F)CC2)cc1Cl [Compound 95] | 1 to 25 | 1 to 25 | 26 to 49 | 50 to 100 |  |  |  |
| Cc1nn(C)c2sc(C(=O)N3CCN(C(C)c4ccccc4)CC3)cc12 (stereo not shown) [Compound 162] | 1 to 25 | 1 to 25 | 26 to 49 |  |  |  |  |
| O=C(OCc1ccccc1)N1CCN(C(=O)c2ccc3ccccc3n2)CC1 [Compound 159] | 1 to 25 | 1 to 25 | 1 to 25 |  |  |  |  |
